Measurements as given in US8722123B2, “Antimicrobial composition and use as food treatment” (priority 2008, dated 2014).
Several values for one entry are separate records, joined by “and”; a condition that tells them apart may be missing. Equal entries are not always repeated. Where two headings read alike, the source gives them in different places.

Columns and labels:
[1] = system: S. enteritidis; type: cell-based, Salmonella enteritidis
[2] = system: L. monocytogenes; type: cell-based, Listeria monocytogenes
[3] = system: S. typhimurium DT 104; type: cell-based, Salmonella typhimurium DT104
[4] = system: spores of Bacillus anthracis Sterne; type: cell-based, Bacillus anthracis Sterne (34F2)
[5] = system: Salmonella on whole chicken with feathers; assay: Salmonella counts on whole chicken with feathers; type: cell-based; conditions: whole chickens with feathers soaked in 72 L at 21° C. for 5 min, chickens 1-5

## CC(=O)CCC(=O)O [0.1% levulinic acid (pH 2.5), levulinic acid]
[1]
  S. enteritidis counts at 0 min: 7.1 log CFU/ml
  S. enteritidis counts at 2 min: 7.1 log CFU/ml
  S. enteritidis counts at 5 min: 6.9 log CFU/ml
  S. enteritidis counts at 10 min: 7.0 log CFU/ml
  S. enteritidis counts at 20 min: 6.9 log CFU/ml
  S. enteritidis counts at 30 min: 6.9 log CFU/ml

## CC(=O)O [0.5% acetic acid (pH 3.1), acetic acid]
[1]
  S. enteritidis counts at 0 min: 7.1 log CFU/ml
  S. enteritidis counts at 2 min: 7.0 log CFU/ml
  S. enteritidis counts at 5 min: 6.8 log CFU/ml
  S. enteritidis counts at 10 min: 6.7 log CFU/ml
  S. enteritidis counts at 20 min: 6.6 log CFU/ml
  S. enteritidis counts at 30 min: 6.5 log CFU/ml

## CC(=O)CCC(=O)O [0.5% levulinic acid (pH 2.6), levulinic acid]
[2]
  L. monocytogenes counts at 0 min: 6.7 ± 0.2 log CFU/ml
  L. monocytogenes counts at 2 min: 6.7 ± 0.1 log CFU/ml
  L. monocytogenes counts at 5 min: 6.8 ± 0.3 log CFU/ml
  L. monocytogenes counts at 10 min: 6.9 ± 0.2 log CFU/ml
  L. monocytogenes counts at 20 min: 6.7 ± 0.2 log CFU/ml
  L. monocytogenes counts at 30 min: 6.8 ± 0.2 log CFU/ml
[3]
  S. typhimurium DT 104 counts at 0 min: 6.8 log CFU/ml
  S. typhimurium DT 104 counts at 1 min: 6.7 log CFU/ml
  S. typhimurium DT 104 counts at 2 min: 6.6 log CFU/ml
  S. typhimurium DT 104 counts at 5 min: 6.5 log CFU/ml
  S. typhimurium DT 104 counts at 10 min: 6.7 log CFU/ml
  S. typhimurium DT 104 counts at 20 min: 6.6 log CFU/ml
  S. typhimurium DT 104 counts at 30 min: 6.4 log CFU/ml
  S. typhimurium DT 104 counts at 60 min: 5.9 log CFU/ml
[1]
  S. enteritidis counts at 0 min: 7.1 log CFU/ml
  S. enteritidis counts at 2 min: 6.8 log CFU/ml
  S. enteritidis counts at 5 min: 6.9 log CFU/ml
  S. enteritidis counts at 10 min: 6.9 log CFU/ml
  S. enteritidis counts at 20 min: 6.6 log CFU/ml
  S. enteritidis counts at 30 min: 6.7 log CFU/ml

## CCCCCCCCCCCCOS(=O)(=O)[O-].[Na+] [0.05% sodium dodecyl sulfate (pH 4.4), sodium dodecyl sulfate]
[2]; 21° C.
  L. monocytogenes counts at 0 min: 6.6 ± 0.3 log CFU/ml
  L. monocytogenes counts at 2 min: 6.4 ± 0.1 log CFU/ml
  L. monocytogenes counts at 5 min: 6.0 ± 0.1 log CFU/ml
  L. monocytogenes counts at 10 min: 5.0 ± 0.3 log CFU/ml
  L. monocytogenes counts at 20 min: 3.8 ± 0.2 log CFU/ml
  L. monocytogenes counts at 30 min: 3.3 ± 0.1 log CFU/ml
[3]
  S. typhimurium DT 104 counts at 0 min: 7.0 log CFU/ml
  S. typhimurium DT 104 counts at 1 min: 7.0 log CFU/ml
  S. typhimurium DT 104 counts at 2 min: 6.8 log CFU/ml
  S. typhimurium DT 104 counts at 5 min: 6.9 log CFU/ml
  S. typhimurium DT 104 counts at 10 min: 6.8 log CFU/ml
  S. typhimurium DT 104 counts at 20 min: 6.9 log CFU/ml
  S. typhimurium DT 104 counts at 30 min: 6.9 log CFU/ml
  S. typhimurium DT 104 counts at 60 min: 6.9 log CFU/ml
[1]
  S. enteritidis counts at 0 min: 7.1 log CFU/ml
  S. enteritidis counts at 2 min: 7.0 log CFU/ml
  S. enteritidis counts at 5 min: 7.2 log CFU/ml
  S. enteritidis counts at 10 min: 7.1 log CFU/ml
  S. enteritidis counts at 20 min: 7.2 log CFU/ml
  S. enteritidis counts at 30 min: 7.1 log CFU/ml
  Salmonella reduction: did not reduce Salmonella cell numbers

## CC(=O)CCC(=O)O [1.0% levulinic acid (pH 2.9), levulinic acid]
[2]
  L. monocytogenes counts at 0 min: 6.8 ± 0.3 log CFU/ml
  L. monocytogenes counts at 2 min: 6.7 ± 0.2 log CFU/ml
  L. monocytogenes counts at 5 min: 6.6 ± 0.3 log CFU/ml
  L. monocytogenes counts at 10 min: 6.6 ± 0.3 log CFU/ml
  L. monocytogenes counts at 20 min: 6.6 ± 0.0 log CFU/ml
  L. monocytogenes counts at 30 min: 6.6 ± 0.3 log CFU/ml
[1]
  S. enteritidis counts at 0 min: 6.9 log CFU/ml
  S. enteritidis counts at 2 min: 6.7 log CFU/ml
  S. enteritidis counts at 5 min: 6.8 log CFU/ml
  S. enteritidis counts at 10 min: 6.9 log CFU/ml
  S. enteritidis counts at 20 min: 6.9 log CFU/ml
  S. enteritidis counts at 30 min: 6.7 log CFU/ml

## CC(=O)CCC(=O)O [1.5% levulinic acid (pH 2.8), levulinic acid]
[2]
  L. monocytogenes counts at 0 min: 6.9 ± 0.1 log CFU/ml
  L. monocytogenes counts at 2 min: 6.9 ± 0.2 log CFU/ml
  L. monocytogenes counts at 5 min: 6.9 ± 0.3 log CFU/ml
  L. monocytogenes counts at 10 min: 6.9 ± 0.1 log CFU/ml
  L. monocytogenes counts at 20 min: 6.9 ± 0.3 log CFU/ml
  L. monocytogenes counts at 30 min: 6.8 ± 0.3 log CFU/ml
[1]
  S. enteritidis counts at 0 min: 6.7 log CFU/ml
  S. enteritidis counts at 2 min: 6.7 log CFU/ml
  S. enteritidis counts at 5 min: 6.8 log CFU/ml
  S. enteritidis counts at 10 min: 6.7 log CFU/ml
  S. enteritidis counts at 20 min: 6.4 log CFU/ml
  S. enteritidis counts at 30 min: 6.5 log CFU/ml

## CC(=O)CCC(=O)O [2.0% levulinic acid (pH 2.8), levulinic acid]
[2]
  L. monocytogenes counts at 0 min: 6.8 ± 0.3 log CFU/ml
  L. monocytogenes counts at 2 min: 6.8 ± 0.2 log CFU/ml
  L. monocytogenes counts at 5 min: 6.9 ± 0.2 log CFU/ml
  L. monocytogenes counts at 10 min: 6.7 ± 0.2 log CFU/ml
  L. monocytogenes counts at 20 min: 6.9 ± 0.2 log CFU/ml
  L. monocytogenes counts at 30 min: 6.8 ± 0.2 log CFU/ml
[1]
  S. enteritidis counts at 0 min: 6.7 log CFU/ml
  S. enteritidis counts at 2 min: 6.7 log CFU/ml
  S. enteritidis counts at 5 min: 6.7 log CFU/ml
  S. enteritidis counts at 10 min: 6.8 log CFU/ml
  S. enteritidis counts at 20 min: 6.5 log CFU/ml
  S. enteritidis counts at 30 min: 6.0 log CFU/ml

## CC(=O)CCC(=O)O [2.5% levulinic acid (pH 2.6), levulinic acid]
[1]
  S. enteritidis counts at 0 min: 6.9 log CFU/ml
  S. enteritidis counts at 2 min: 6.8 log CFU/ml
  S. enteritidis counts at 5 min: 6.9 log CFU/ml
  S. enteritidis counts at 10 min: 6.4 log CFU/ml
  S. enteritidis counts at 20 min: 5.8 log CFU/ml
  S. enteritidis counts at 30 min: 4.8 log CFU/ml

## CC(=O)CCC(=O)O [3.0% levulinic acid (pH 2.7), levulinic acid]
[4]
  CFU % recovery (as compared to control flask F), 0 min: 89% and 70% and 75%
  CFU % recovery (as compared to control flask F), 10 min: 81%
  CFU % recovery (as compared to control flask F), 45 min: 55%
  CFU % recovery (as compared to control flask F), 1 h: 54% and 78% and 80% and 58%
  CFU % recovery (as compared to control flask F), 90 min: 64%
  CFU % recovery (as compared to control flask F), 2 h: 27% and 45% and 46% and 34%
[1]
  S. enteritidis counts at 0 min: 6.6 log CFU/ml
  S. enteritidis counts at 2 min: 6.8 log CFU/ml
  S. enteritidis counts at 5 min: 6.5 log CFU/ml
  S. enteritidis counts at 10 min: 6.2 log CFU/ml
  S. enteritidis counts at 20 min: 5.1 log CFU/ml
  S. enteritidis counts at 30 min: 3.8 log CFU/ml

## [Ca+2].[O-]Cl.[O-]Cl [50 ppm calcium hypochlorite]
[5]; left breast
  Salmonella counts after treatment: 7.0 log CFU/9 cm^2 and 8.7 log CFU/9 cm^2 and 7.9 log CFU/9 cm^2 and 8.1 log CFU/9 cm^2
[5]; left wing
  Salmonella counts after treatment: 7.6 log CFU/9 cm^2 and 8.0 log CFU/9 cm^2 and 8.1 log CFU/9 cm^2 and 8.8 log CFU/9 cm^2 and 8.5 log CFU/9 cm^2
[5]; neck
  Salmonella counts after treatment: 7.9 log CFU/9 cm^2 and 8.9 log CFU/9 cm^2 and 8.5 log CFU/9 cm^2 and 8.1 log CFU/9 cm^2
[5]; right breast
  Salmonella counts after treatment: 7.9 log CFU/9 cm^2 and 8.3 log CFU/9 cm^2 and 8.0 log CFU/9 cm^2 and 8.5 log CFU/9 cm^2 and 7.8 log CFU/9 cm^2
[5]; right wing
  Salmonella counts after treatment: 8.4 log CFU/9 cm^2 and 8.0 log CFU/9 cm^2 and 7.6 log CFU/9 cm^2

## CCCCCCCCCCCCOS(=O)(=O)[O-].[Na+] [E]
[4]
  CFU % recovery (as compared to control flask F), 10 min: 65%
  CFU % recovery (as compared to control flask F), 45 min: 94%
  CFU % recovery (as compared to control flask F), 90 min: 144%
  CFU % recovery (as compared to control flask F), 2 h: 87% and 74% and 103% and 53%
  CFU % recovery (as compared to control flask F), 180 min: 95%
  CFU % recovery (as compared to control flask F), 3 h: 98% and 68% and 113% and 71%
  effectiveness versus water control F: not more effective than the water control F
  recovery levels over time: did not decrease
